Laboratory results as given in paper PMC13327620, “A Deep‐Red‐Absorbing Osmium(II) Complex as a Photosensitizer for Photodynamic Therapy Inducing Immunogenic Cell Death” (Angewandte Chemie (International Ed. in English), 2026).
Read-outs that look alike come from different tables or passages of the source.

How the values were obtained:
[1] = test system: HMGB‐1; assay: Immunofluorescence staining of HMGB-1 (release) in CT26 cells; type: cell-based, mouse; settings: CT26, compounds at IC50, illumination at 740 and 770 nm
Description: Scientific, Catalog no.15 5411) at a d ensity of 8,00 0 cells p er well and cultu red fo r 24 h at 37 °C with 5 % CO2. T he cells wer e then treated with a solution of the compounds at a concentration corresponding to the IC50 for 4 h. After refreshing the medium, cells were subjected to irradiation and incubated for an additional 12 h. Subsequently, the cells were fix ed with 4% paraformaldehyde and immunostained with Anti- Calreticulin antibody (Abcam, Catalog no. ab2907) diluted 1/1000 at 4 °C overnight. Cells were then washed three times with PBS, treated with Goat Anti- Rabbit IgG H&L (Alexa […]
temperature in the dark, washed in PBS and treat ed with 10 µg/mL Hoechst for 15 min.
After a final wash, cells were analyzed by confocal microscopy as det ailed above.
Immunofluorescence st aining of HMGB-1
CT26 or MCA205 cells were seeded in Lab -Te k ® Chambered Coverglass System (Thermo Fisher Scientific, Catalog no.155411) at a density of 8,000 cells per well and cultured for 24 h at 37 °C with 5% CO2. The cells were then treated with a solution of the compounds at a concentration corresponding to the IC50 for 4 h. After refreshing the medium, cells were subjected to irradiation and incubated for an additional 12 h.
Subsequently, the cells were fixed with 4% paraformaldehyde, perm eabilized with 0.2% Triton X-100 and immunostained using anti-HMGB1 antibody [EPR3507] […]

[2] = test system: CT26 cells; assay: ICD in vitro, summary of the three hallmarks; type: cell-based, mouse
Description: A weak ICD was present in cells treated with 6.12 µM Os2 in the dark (limited translocation of CRT) and Ce6‐treated cells under 770 nm light (partial release of HMGB‐1).

[3] = test system: mouse colon adenocarcinoma (CT26) cells; assay: Resazurin cell viability assay, (photo)cytotoxicity, normoxia; type: cell-based
Description: Given that most ICD studies focus on breast, non‐small cell lung carcinoma, and colon cancer, and since ICD was first discovered in mouse colon cancer cells (CT26), we initially tested our compounds on CT26 cells. Cells were incubated with nine different concentrations (mainly from 0.01 to 100 µM) of the compounds for 4 h in the dark. Then, the diluted solutions containing the compounds were replaced by fresh medium, and the cells were either illuminated or kept in the dark for 1 h more. After 2 days, IC50 values (concentration of the agent inhibiting cell growth by 50%) were determined with the resazurin assay, using chlorin e6 (Ce6) and protoporphyrin IX (PpIX) for comparison (Figure S10). The clinically approved chlorin mixture Radachlorin contains ∼80% Ce6, while 5‐aminolevulinic acid (Ameluz and Levulan) and methyl 5‐aminolevulinate (Metvix and Metvixia) serve as precursors of PpIX. Therefore, Ce6 and PpIX were used for comparison purposes.
(§1) (100 U ml−1), streptomycin (100 U ml−1), and 1% L-glutamine. […]
(§2) All cells were incubated at 37 °C in a humidified atmosphere with 5 % CO2.
(§3) Normoxia. The in vitro viability of cells exposed to the complexes was determined using a resazurin assay. C ells were seeded in 96-well plates at densities of 4,000 cells/well for CT26, MC A205 and U-87 MG cells, and 8,000 cells/well for MRC-5 and NIH/3T3 cells. A fter 24 h of growth at 37 °C wit h 5% CO2, the medium was replaced with fresh medium containing various concentrations of the compounds . Following a 4- h incubation in the dark, the medium was refres hed , and the plates were exposed to irradiation usinga LUM OS -BIO photoreactor (At las Photonics).N on- ir rad iated plates were similarly refr eshed with medium and kept in the dark for the same duration. After a 40- h r ecov ery period, a f reshly pr epar ed resazurin solution (0.2 mg/mL) was added to each well, and the plates were left in the dark for 4 h before analysis on a B i o Te k Cytation 5 Cell Imaging Multimode Reader (Agil ent Technologies). […]

[4] = test system: human glioblastoma cells (U-87 MG); assay: as above; type: cell-based; settings: for IC50: Homo sapiens
Description: as §1, §2, §3

## C=Cc1c(C)c2cc3nc(c(CC(=O)O)c4[nH]c(cc5nc(cc1[nH]2)C(C)=C5CC)c(C)c4C(=O)O)[C@@H](CCC(=O)O)[C@@H]3C [Ce6, chlorin e6]
[1]
  HMGB‐1 release: a minority
[2]; CT26, 770 nm light
  ICD (all three hallmarks): weak ICD
[2]; CT26, illumination at 740 nm
  ICD (all three hallmarks): strong ICD
[3]; CT26, 480 nm
  PI: >38
[3]; CT26, 510 nm
  PI: >70
[3]; CT26, 540 nm
  PI: >30
[3]; CT26, 595 nm
  PI: >20
[3]; CT26, 620 nm
  PI (phototoxicity index, IC50 dark/IC50 light): >51
[3]; CT26, 645 nm
  PI: >25
[3]; CT26, 670 nm
  PI: >51
[3]; CT26, 740 nm
  PI: >19
[3]; CT26, 770 nm
  PI: >4
[3]; CT26, 770 nm, FWHM 12.5 nm, 15.30 J/cm^2
  IC50: almost non‐phototoxic
[3]; Mus musculus, CT26, CT26, dark, normoxia, read-out: IC50 Dark
  IC50: > 100 µM
[3]; Mus musculus, CT26, light or radiation study, 1 h, CT26, 620 nm, 1.88 mW/cm^2, 60 min, normoxia, read-out: IC50 620 nm (1 h, 6.75 J/cm^2)
  IC50: 1.98 ± 0.11 µM
[3]; Mus musculus, CT26, light or radiation study, CT26, 480 nm, FWHM 10 nm, 3.38 J/cm^2, read-out: IC50
  IC50: 2.64 ± 0.42 µM
[3]; Mus musculus, CT26, light or radiation study, CT26, 510 nm, FWHM 15 nm, 2.44 J/cm^2, read-out: IC50
  IC50: 1.43 ± 0.1 µM
[3]; Mus musculus, CT26, light or radiation study, CT26, 540 nm, FWHM 15 nm, 9.00 J/cm^2, read-out: IC50
  IC50: 3.33 ± 0.44 µM
[3]; Mus musculus, CT26, light or radiation study, CT26, 595 nm, FWHM 10 nm, 3.38 J/cm^2, read-out: IC50
  IC50: 5.1 ± 1.44 µM
[3]; Mus musculus, CT26, light or radiation study, CT26, 645 nm, FWHM 10 nm, 9.00 J/cm^2, read-out: IC50
  IC50: 3.93 ± 0.67 µM
[3]; Mus musculus, CT26, light or radiation study, CT26, 670 nm, FWHM 10 nm, 13.50 J/cm^2, read-out: IC50
  IC50: 1.97 ± 0.42 µM
[3]; Mus musculus, CT26, light or radiation study, CT26, 740 nm, FWHM 10 nm, 12.60 J/cm^2, read-out: IC50
  IC50: 5.27 ± 0.46 µM
[3]; Mus musculus, CT26, light or radiation study, CT26, 770 nm, FWHM 12.5 nm, 15.30 J/cm^2, read-out: IC50
  IC50: 25.4 ± 3.72 µM
[4]; 740 nm
  PI: 28
[4]; 770 nm
  PI: 8
[4]; dark, read-out: IC50 Dark
  IC50: 116 ± 6.99 µM
[4]; light or radiation study, 1 h, 740 nm, 1.12 mW/cm2, 60 min, 12.60 J/cm2, read-out: IC50 740 nm
  IC50: 4.15 ± 0.06 µM
[4]; light or radiation study, 2 h, 770 nm, 0.68 mW/cm2, 120 min, 15.30 J/cm2, read-out: IC50 770 nm
  IC50: 14 ± 3.14 µM
